Measured values reported in US6268391A, “Benzylidene-1,3-dihydro-indol-2-one derivatives a receptor tyrosine kinase inhibitors, particularly of Raf kinases” (Glaxo Wellcome Inc., priority 1997, dated 2001).

Target: T1, Human cRaf1 (Homo sapiens, UniProt P04049)
T1 construct: poly-histidine (C); made in house
Experiment: Raf kinase assay (cRaf1 assay / Raf/MEK cascade assay)
Type: biochemical
Details: Table 3; read-out: Raf Kinase activity

| IC50 | Compound |
| --- | --- |
| < 1000 nM | O=C1Nc2ccc(-c3csc(-c4ccccc4)n3)cc2C1=Cc1cc(Br)c(O)c(Br)c1 [Example 125, 3-(3,5-Dibromo-4-hydroxy-benzylidene)-5-(2-phenyl-thiazol-4-yl)-1,3-dihydro-indol-2-one] |
| 1000 to 10000 nM | O=C1Nc2ccccc2C1=Cc1cc(Br)c(O)c(Br)c1 [Example 28, 3-(3,5-Dibromo-4-hydroxy-benzylidene)-1,3-dihydro-indol-2-one] |
| < 1000 nM | CCOc1cc(C=C2C(=O)Nc3ccc(C(=O)c4cccnc4)cc32)cc(Br)c1O [Example 16, 3-(3-Bromo-5-ethoxy-4-hydroxy-benzylidene)-5-(pyridine-3-carbonyl)-1,3-dihydro-indol-2-one] |
| < 1000 nM | O=C1Nc2ccc(-c3ccccc3)cc2C1=Cc1cc(Cl)c(O)c(Cl)c1 [Example 93, 3-(3,5-Dichloro-4-hydroxy-benzylidene)-5-phenyl-1,3-dihydro-indol-2-one] |
| < 1000 nM | CCNc1nc(-c2ccc3c(c2)C(=Cc2cc(Br)c(O)c(Br)c2)C(=O)N3)cs1 [Example 94, 3-(3,5-Dibromo-4-hydroxy-benzylidene)-5-(2-(ethylamino)-4H-thiazol-4-yl)-1,3-dihydro-indol-2-one] |
| < 1000 nM | O=C1Nc2ccc(C(=O)c3ccco3)cc2C1=Cc1cc(Br)c(O)c(Br)c1 [Example 21] |
| < 1000 nM | O=C1Nc2ccc(-c3cc(C(F)(F)F)cc(C(F)(F)F)c3)cc2C1=Cc1cc(Br)c(O)c(Br)c1 [Example 169, 5-[3,5-bis(Trifluoromethyl)phenyl]-3-[(3,5-dibromo-4-hydroxyphenyl)methylidene]-1,3-dihydro-2H-indol-2-one] |
| < 1000 nM | Nc1nc(-c2ccc3c(c2)C(=Cc2cc(Br)c(O)c(Br)c2)C(=O)N3)cs1 [Example 30, 5-(2-Amino-thiazol-4-yl)-3-(3,5-dibromo-4-hydroxy-benzylidene)-1,3-dihydro-indol-2-one] |
| < 1000 nM | CCOc1cc(C=C2C(=O)Nc3ccc(-c4csc(C)n4)cc32)cc(Br)c1O [Example 3, 3-(3-Bromo-5-ethoxy-4-hydroxy-benzylidene)-5-(2-methyl-thiazol-4-yl)-1,3-dihydro-indol-2-one] |
| < 1000 nM | O=C1Nc2ccc(C3=NNC(=S)NC3)cc2C1=Cc1cc(Cl)c(O)c(Cl)c1 [Example 128, 3-(3,5-Dichloro-4-hydroxy-benzylidene)-5-(3-thioxo-2,3,4,5-tetrahydro-[1,2,4]-triazine-6-yl)-1,3-dihydro-indol-2-one] |
| < 1000 nM | O=C1Nc2ccc(C(=O)c3ccncc3)cc2C1=Cc1cc(Cl)c(O)c(Cl)c1 [Example 15, 3-(3,5-Dichloro-4-hydroxy-benzylidene)-5-(pyridine-4-carbonyl)-1,3-dihydro-indol-2-one] |
| < 1000 nM | O=C1Nc2ccc(C(=O)c3cccnc3)cc2C1=Cc1cc(Cl)c(O)c(Cl)c1 [Example 12, 3-(3,5-Dichloro-4-hydroxy-benzylidiene)-5-(pyridine-3-carbonyl)-1,3-dihydro-indol-2-one] |
| < 1000 nM | CCN(CC)CC(=O)c1ccc2c(c1)C(=Cc1cc(Br)c(O)c(Br)c1)C(=O)N2 [Example 83, 3-(3,5-Dibromo-4-hydroxy-benzylidene)-5-(2-diethylamino-acetyl)-1,3-dihydro-indol-2-one] |
| < 1000 nM | O=C1Nc2ccc(C(=O)c3cccc([N+](=O)[O-])c3)cc2C1=Cc1cc(Br)c(O)c(Br)c1 [Example 96, 3-(3,5-Dibromo-4-hydroxy-benzylidene)-5-(3-nitro-benzoyl)-1,3-dihydro-indol-2-one] |
| < 1000 nM | CC(C)CC(=O)c1ccc2c(c1)C(=Cc1cc(Br)c(O)c(Br)c1)C(=O)N2 [Example 5] |
| < 1000 nM | COc1cc(C=C2C(=O)Nc3ccc(Cl)cc32)cc(Cl)c1O [Example 54, 5-Chloro-3-(3-chloro-4-hydroxy-5-methoxy-benzylidene)-1,3-dihydro-indol-2-one] |
| < 1000 nM | N#Cc1ccc2c(c1)NC(=O)C2=Cc1cc(Br)c(O)c(Br)c1 [Example 179, 3-[(3,5-Dibromo-4-hydroxyphenyl)methylidene]-2-oxo-6-indolinecarbonitrile] |

The next lines start with the compound.

| Compound | IC50 |
| --- | --- |
| O=C1Nc2ccc(C(=O)c3ccc([N+](=O)[O-])cc3)cc2C1=Cc1cc(Br)c(O)c(Br)c1 [Example 95, 3-(3,5-Dibromo-4-hydroxy-benzylidene)-5-(4-nitro-benzoyl)-1,3-dihydro-indol-2-one] | < 1000 nM |
| O=C1Nc2ccc(C(=O)C3CC3)cc2C1=Cc1cc(Br)c(O)c(Br)c1 [Example 24, 5-Cyclopropanecarbonyl-3-(3,5-dibromo-4-hydroxy-benzylidene)-1,3-dihydro-indol-2-one] | < 1000 nM |
| O=C(NCCOCCO)Oc1c(Br)cc(C=C2C(=O)Nc3ccc(I)cc32)cc1Br [Example 152, 2,6-Dibromo-4-[(5-iodo-2-oxo-1,2-dihydro-3H-indol-3-ylidene)methyl]phenyl N-[2-(2-hydroxyethoxy)ethyl]carbamate] | < 1000 nM |
| CCOc1cc(C=C2C(=O)Nc3ccc([N+](=O)[O-])cc32)cc(Br)c1O [Example 68, 3-(3-Bromo-5-ethoxy-4-hydroxy-benzylidene)-5-nitro-1,3-dihydro-indol-2-one] | < 1000 nM |
| O=C1Nc2ccc(-c3ccccc3)cc2C1=Cc1cc(Br)c(O)c(Br)c1 [Example 92, 3-(3,5-Dibromo-4-hydroxy-benzylidene)-5-phenyl-1,3-dihydro-indol-2-one] | < 1000 nM |
| O=C1Nc2ccc(S(=O)(=O)N3CCCC3)cc2C1=Cc1cc(Br)c(O)c(Br)c1 [Example 35, 3-(3,5-Dibromo-4-hydroxy-benzylidene)-5-(pyrrolidine-1-sulfonyl)-1,3-dihydro-indol-2-one] | < 1000 nM |
| O=C1Nc2ccc(C(=O)CCl)cc2C1=Cc1cc(Cl)c(O)c(Cl)c1 [Example 88, 5-(2-Chloro-acetyl)-3-(3,5-dichloro-4-hydroxy-benzylidene)-1,3-dihydro-indol-2-one] | < 1000 nM |
| CCN(CC)C(=O)Oc1c(Br)cc(C=C2C(=O)Nc3ccc(I)cc32)cc1Br [Example 154, 2,6-Dibromo-4-[(5-iodo-2-oxo-1,2-dihydro-3H-indol-3-ylidene)methyl]phenyl N,N-diethylcarbamate] | 10000 to 100000 nM |
| CCN(CC)C(=O)Oc1c(Br)cc(C=C2C(=O)Nc3ccc(S(N)(=O)=O)cc32)cc1Br [Example 164, 4-[5-(Aminosulfonyl)-2-oxo-1,2-dihydro-3H-indol-3-ylidene]methyl-2,6-dibromophenyl N,N-diethylcarbamate] | 1000 to 10000 nM |
| O=C1Nc2ccc(C(=O)CCl)cc2C1=Cc1cc(I)c(O)c(I)c1 [Example 114, 5-(2-Chloro-acetyl)-3-(3,5-diiodo-4-hydroxy-benzylidene)-1,3-dihydro-indol-2-one] | < 1000 nM |
| O=C1Nc2ccc(-c3csc(Nc4ccccc4)n3)cc2C1=Cc1cc(Cl)c(O)c(Cl)c1 [Example 127, 3-(3,5-Dichloro-4-hydroxy-benzylidene)-5-(2-phenylamino-thiazol-4-yl)-1,3-dihydro-indol-2-one] | < 1000 nM |
| CC(=O)c1ccc2c(c1)C(=Cc1cc(Cl)c(O)c(Cl)c1)C(=O)N2 [Example 90, 5-Acetyl-3-(3,5-dichloro-4-hydroxy-benzylidene)-1,3-dihydro-indol-2-one] | < 1000 nM |
| O=C1Nc2ccc(C(=O)c3cccs3)cc2C1=Cc1cc(Br)c(O)c(Br)c1 [Example 29, 3-(3,5-Dibromo-4-hydroxy-benzylidene)-5-(thiophene-2-carbonyl)-1,3-dihydro-indol-2-one] | < 1000 nM |
| O=C(CO)Nc1ccc2c(c1)C(=Cc1cc(Br)c(O)c(Br)c1)C(=O)N2 [Example 160, N-3-[(3,5-Dibromo-4-hydroxyphenyl)methylidene]-2-oxo-2,3-dihydro-1H-indol-5-yl-2-hydroxyacetamide] | < 1000 nM |
| O=C1Nc2ccc(-c3cnco3)cc2C1=Cc1cc(Br)c(O)c(Br)c1 [Example 18, 3-(3,4-Dibromo-4-hydroxy-benzylidene)-5-(oxazol-5-yl)-1,3-dihydro-indol-2-one] | < 1000 nM |
| O=C1Nc2ccc(C(=O)NCCCc3ccccc3)cc2C1=Cc1cc(Br)c(O)c(Br)c1 [Example 161, 3-[(3,5-Dibromo-4-hydroxyphenyl)methylidene]-2-oxo-N-(3-phenylpropyl)-5-indolinecarboxamide] | < 1000 nM |
| COc1cc(C=C2C(=O)Nc3ccc(I)cc32)cc([N+](=O)[O-])c1O [Example 104, 3-(4-Hydroxy-3-methoxy-5-nitro-benzylidene)-5-iodo-1,3-dihydro-indol-2-one] | < 1000 nM |
| O=C1Nc2ccc(C(=O)c3ccccc3)cc2C1=Cc1cc(Cl)c(O)c(Cl)c1 [Example 7, 5-Benzoyl-3-(3,5-dichloro-4-hydroxy-benzylidene)-1,3-dihydro-indol-2-one] | < 1000 nM |
| O=C1Nc2ccc(C(=O)C3CCCC3)cc2C1=Cc1cc(Br)c(O)c(Br)c1 [Example 26, 5-Cyclopentanecarbonyl-3-(3,5-dibromo-4-hydroxy-benzylidene)-1,3-dihydro-indol-2-one] | < 1000 nM |
| O=C1Nc2c(cc([N+](=O)[O-])cc2[N+](=O)[O-])C1=Cc1cc(Br)c(O)c(Br)c1 [Example 62, 3-(3,5-Dibromo-4-hydroxy-benzylidene)-5,7-dinitro-1,3-dihydro-indol-2-one] | < 1000 nM |
| O=C1Nc2ccccc2C1=Cc1cc(I)c(O)c(I)c1 [Example 50, 3-(3,5-diiodo-4-Hydroxy-benzylidene)-1,3-dihydro-indol-2-one] | 1000 to 10000 nM |
| NC(=O)c1ccc2c(c1)C(=Cc1cc(Br)c(O)c(Br)c1)C(=O)N2 [Example 137, 3-(3,5-Dibromo-4-hydroxy-benzylidene)-2-oxo-2,3-dihydro-1H-indol-5-carboxylic acid amide] | < 1000 nM |
| CCOc1cc(C=C2C(=O)Nc3ccc(C(=O)c4ccncc4)cc32)cc(Br)c1O [Example 14, 3-(3-Bromo-5-ethoxy-4-hydroxy-benzylidene)-5-(pyridine-4-carbonyl)-1,3-dihydro-indol-2-one] | < 1000 nM |
| 3-(3-Bromo-4-hydroxy-5-ethoxy-benzylidene)-5-(2-dimethylamino-acetyl)-1,3-dihydro-indol-2-one [Example 111] | < 1000 nM |
| CN(CCO)CC(=O)c1ccc2c(c1)C(=Cc1cc(Br)c(O)c(Br)c1)C(=O)N2 [Example 75] | < 1000 nM |
